Assay results as given in patent publication US20050020576A1, “Kappa agonist compounds and pharmaceutical formulations thereof” (priority 1996, published 2005).
Several values for one entry are separate records, joined by “and”; a condition that tells them apart may be missing. Equal values may be shown once. Where a name gives a salt, the structure may show the parent alone.

Assays:
[1] = target: T1, cloned human kappa receptor (Homo sapiens, UniProt P41145); test: biochemical; type: binding; set-up: (3H)-Diprenorphin, % / k [3H] Diprenorphin, %: dose or concentration left out as unconfirmed; settings: for inhibition at 1 µM: read-out: 3H-Diprenorphin, % @ 1 uM
[2] = tested on: formalin-induced flinching; test: animal or person; type: in vivo, male Sprague-Dawley rats; settings: rat, in vivo
[3] = target: T1, cloned human kappa receptor; test: [3H]U69593 (agonist) binding to the cloned human kappa receptor
[4] = Table I, read-out: Ki, nM 3H-Diprenorphin

T1 sequence (P41145 whole entry): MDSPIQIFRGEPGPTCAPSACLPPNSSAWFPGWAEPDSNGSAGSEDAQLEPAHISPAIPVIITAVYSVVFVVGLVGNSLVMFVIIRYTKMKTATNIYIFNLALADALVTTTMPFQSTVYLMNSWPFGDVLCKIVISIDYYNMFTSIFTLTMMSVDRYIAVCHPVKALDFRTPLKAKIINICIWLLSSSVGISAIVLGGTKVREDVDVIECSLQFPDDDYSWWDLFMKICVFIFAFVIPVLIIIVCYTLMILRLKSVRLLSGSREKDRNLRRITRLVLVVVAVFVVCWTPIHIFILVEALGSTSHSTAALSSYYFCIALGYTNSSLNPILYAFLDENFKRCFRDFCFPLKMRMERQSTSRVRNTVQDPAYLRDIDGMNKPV

Structure (SMILES) | Ki ([1]; Ki, nM 3H-Diprenorphin) | Late Phase Formalin, % @ 300; i.paw [2] | Ki ([3]; Ki, nM 3H-U-69,593) | also measured
CS(=O)(=O)N1CCN(C(=O)Cc2ccc(Cl)c(Cl)c2)C(CN2CCCC2)C1 (racemic) [(R,S-8a), (R,S)-4-Methanesulfonyl-1-[(3,4-dichlorophenyl)acetyl]-2-[(1-pyrrolidinyl)methyl]-piperazine hydrochloride] | 5.4 nM and 4 nM | 96% @ 300 | 0.37 nM and 0.65 nM | 
CS(=O)(=O)N1CCN(C(=O)Cc2ccc(C(F)(F)F)cc2)C(CN2CCCC2)C1 (racemic) [(R,S-8d), (R,S)-4-Methanesulfonyl-1-[(4-trifluoromethylphenyl)acetyl]-2-[(1-pyrrolidinyl)-methyl]piperazine hydrochloride] | 16 nM and 17 nM | 97% @ 300 | 1.3 nM and 1.9 nM | 
COC(=O)N1CCN(C(=O)Cc2ccc(S(C)(=O)=O)cc2)C(CN2CCCC2)C1 (racemic) [(R,S-9a), (R,S)-Methyl 4-[(4-methylsulfonylphenyl)acetyl]-3-[(1-pyrrolidinyl)-methyl]-1-piperazinecarboxylate hydrochloride] | 11 nM | 46% @ 300 | 0.37 nM and 0.42 nM | 
COC(=O)N1CCN(C(=O)Cc2ccc(C(F)(F)F)cc2)C(CN2CCCC2)C1 (racemic) [(R,S-9b), (R,S)-Methyl 4-[(4-trifluoromethylphenyl)acetyl]-3-[(1-pyrrolidinyl)-methyl]-1-piperazinecarboxylate hydrochloride] | 0.49 nM | 98% @ 300 | 0.076 nM and 0.13 nM | 
COC(=O)N1CCN(C(=O)Cc2c[nH]c3ccccc23)C(CN2CCCC2)C1 (racemic) [(R,S-9c), (R,S)-Methyl 4-[(3-indolyl)acetyl]-3-[(1-pyrrolidinyl)-methyl]-1-piperazine-carboxylate hydrochloride] | 3 nM | 95% @ 300 | 0.27 nM and 0.4 nM | 
COC(=O)N1CCN(C(=O)Cc2ccccc2[N+](=O)[O-])C(CN2CCCC2)C1 (racemic) [(R,S-9d), (R,S)-Methyl 4-[(2-nitrophenyl)acetyl]-3-[(1-Pyrrolidinyl)-methyl]-1-piperazine-carboxylate hydrochloride] | 37 nM | 93% @ 300 | 0.74 nM and 0.73 nM | 
COC(=O)N1CCN(C(=O)Cc2ccccc2OC)C(CN2CCCC2)C1 (racemic) [(R,S-9e), hydrochloride] | 7.3 nM | 98% @ 300 | 0.46 nM and 1.3 nM | 
COC(=O)N1CCN(C(=O)Cc2ccccc2N)C(CN2CCCC2)C1 (racemic) [(R,S-9f), (R,S)-Methyl 4-[(2-aminophenyl)acetyl]-3-[(1-pyrrolidinyl)-methyl]-1-piperazine-carboxylate dihydrochloride] | 4.6 nM and 3.2 nM | 97% @ 300 | 0.67 nM and 0.41 nM | 
CC(=O)N1CCN(C(=O)Cc2ccc(S(C)(=O)=O)cc2)C(CN2CCCC2)C1 (racemic) [(R,S-10a), hydrochloride] |  | 6% @ 300 | 2.3 nM | inhibition at 1 µM [1]: 27%
CC(=O)N1CCN(C(=O)Cc2ccccc2C(F)(F)F)C(CN2CCCC2)C1 (racemic) [(R,S-10c), (R,S)-4-Acetyl-1-[(2-trifluoromethylphenyl)acetyl]-3-[(1-pyrrolidinyl)-methyl]piperazinecarboxylate hydrochloride] |  |  | 16 nM | inhibition at 1 µM [1]: 45%
CC(=O)N1CCN(C(=O)Cc2cccc([N+](=O)[O-])c2)C(CN2CCCC2)C1 (racemic) [(R,S-10d), (R,S)-4-Acetyl-1-[(3-nitrophenyl)acetyl]-3-[(1-pyrrolidinyl)-methyl]piperazine-carboxylate hydrochloride] |  |  | 0.72 nM | inhibition at 1 µM [1]: 94%
CC(=O)N1CCN(C(=O)Cc2ccccc2[N+](=O)[O-])C(CN2CCCC2)C1 (racemic) [(R,S-10e), (R,S)-4-Acetyl-1-[(2-nitrophenyl)acetyl]-3-[(1-pyrrolidinyl)-methyl]piperazine-carboxylate hydrochloride] |  |  | 24 nM | Ki [1, 4]: 541 nM
CC(=O)N1CCN(C(=O)Cc2ccc([N+](=O)[O-])cc2)C(CN2CCCC2)C1 (racemic) [(R,S-10f), hydrochloride] |  |  | 2.4 nM | inhibition at 1 µM [1]: 59%
CN(C(=O)Cc1ccc(C(F)(F)F)cc1N(S(C)(=O)=O)S(C)(=O)=O)C1CCCCC1N1CCCC1.Cl (racemic) [Example 5j, (±)-trans-2-Bismethanesulfonamido-4-trifluoromethyl-N-methyl-N-[2-(1-pyrrolidinyl)cyclohexyl]-phenylacetamide Hydrochloride] |  |  |  | % @ 1 μM, diprenorphine [1]: 13% @ 1 μM; % @ 1 μM, U-69593 [3]: 48% @1 μM
CN(C(=O)C(c1ccccc1)c1ccccc1)C1CCCCC1N1CCCC1 (racemic) [Example 5s, (±)-trans-N-Methyl-N-[2-(1-pyrrolidinyl)cyclohexyl]2,2-dphenylacetamide Hydrochloride] |  |  |  | Ki ([1]; Ki(nM) diprenorphine): 1170 nM; Ki ([3]; Ki(nM) U-69593): 330 nM
COc1ccc2c(c1)[C@H](N(C)C(=O)C(c1ccccc1)c1ccccc1)[C@@H](N1CCCC1)CC2 (racemic) [II-2] |  |  |  | Ki ([1]; Ki (nM) k [3H] Diprenorphin): 142 nM; Ki ([3]; Ki (nM) k (mg) [3H]U69,593): 20 nM
CN(C(=O)C(c1ccccc1)c1ccccc1)[C@H]1c2cc(O)ccc2CC[C@@H]1N1CCCC1 (racemic) [II-4] |  |  |  | Ki ([1]; Table II, read-out: Ki (nM) k [3H] Diprenorphin): 549 nM; Ki ([3]; Table II, read-out: Ki (nM) k (mg) [3H]U69,593): 432 nM

Structure (SMILES) | Ki ([1]; Ki, nM 3H-Diprenorphin) | Late Phase Formalin, % @ 300; i.paw [2] | Ki ([3]; Ki, nM 3H-U-69,593) | also measured
CCOC(=O)CN(CC(=O)OCC)c1ccc2c(c1)[C@H](N(C)C(=O)Cc1ccc(Cl)c(Cl)c1)[C@@H](N1CCCC1)CC2 (racemic) [II-10] |  |  |  | Ki ([1]; Ki (nM) k [3H] Diprenorphin): 4.6 nM; Late Phase Formalin, % A @ 300 [2]: 37% A @ 300; Ki ([3]; Ki (nM) k (mg) [3H]U69,593): 0.68 nM
CN(C(=O)Cc1ccc(Cl)c(Cl)c1)[C@H]1c2cc(N(CC(=O)OC(C)(C)C)CC(=O)OC(C)(C)C)ccc2CC[C@@H]1N1CCCC1 (racemic) [II-11] |  |  |  | Ki ([1]; Ki (nM) k [3H] Diprenorphin): 7.4 nM; Ki ([3]; Ki (nM) k (mg) [3H]U69,593): 2.8 nM
CN(C(=O)Cc1ccc(Cl)c(Cl)c1)[C@H]1c2cc(N(CC(=O)O)CC(=O)O)ccc2CC[C@@H]1N1CCCC1 (racemic) [II-12] |  |  |  | Ki ([1]; Ki (nM) k [3H] Diprenorphin): 3.8 nM; Ki ([3]; Ki (nM) k (mg) [3H]U69,593): 0.68 nM
CCOP(=O)(CCNc1ccc2c(c1)[C@H](N(C)C(=O)Cc1ccc(Cl)c(Cl)c1)[C@@H](N1CCCC1)CC2)OCC (racemic) [II-13] |  |  |  | Ki ([1]; Ki (nM) k [3H] Diprenorphin): 6.2 nM; Ki ([3]; Ki (nM) k (mg) [3H]U69,593): 2.2 nM
CCOP(=O)(Nc1ccc2c(c1)[C@H](N(C)C(=O)Cc1ccc(Cl)c(Cl)c1)[C@@H](N1CCCC1)CC2)OCC (racemic) [II-14] |  |  |  | Ki ([1]; Ki (nM) k [3H] Diprenorphin): 2.4 nM; Ki ([3]; Ki (nM) k (mg) [3H]U69,593): 0.6 nM
COc1cc2c(cc1S(=O)(=O)N(C)Cc1ccccc1)[C@H](N(C)C(=O)Cc1ccc(Cl)c(Cl)c1)[C@@H](N1CCCC1)CC2 (racemic) [II-15] |  |  |  | Ki ([1]; Ki (nM) k [3H] Diprenorphin): 48 nM; Ki ([3]; Ki (nM) k (mg) [3H]U69,593): 8 nM
CN(C(=O)Cc1ccc(Cl)c(Cl)c1)[C@H]1c2cc(S(=O)(=O)N(C)Cc3ccccc3)ccc2CC[C@@H]1N1CCCC1 (racemic) [II-16] |  |  |  | Ki ([1]; Ki (nM) k [3H] Diprenorphin): 200 nM; Ki ([3]; Ki (nM) k (mg) [3H]U69,593): 40 nM
CN(C(=O)C(c1ccccc1)c1ccccc1)[C@H]1c2ccccc2C[C@@H]1N1CCCC1 (racemic) [II-20] |  |  |  | k [3H] Diprenorphin, % [1]: 29% @ 1 mM; Ki [3]: 146 nM
Cl.O=C(Cc1ccc(Cl)c(Cl)c1)N1CCNC[C@@H]1CN1CCCC1 [(R-2), (R)-1-[(3,4-Dichlorophenyl)acetyl]-2-[(1-pyrrolidinyl)methyl]piperazine hydrochloride] | 14 nM and 17 nM | 57% @ 300 | 1.5 nM and 1.3 nM | 
CC(C)(C)CC(=O)N1CCN(C(=O)Cc2ccc(Cl)c(Cl)c2)[C@H](CN2CCCC2)C1 [(R-3b), (R)-4-t-Butyl-acetyl-1-[(3,4-dichlorophenyl)acetyl]-2-[(1-pyrrolidinyl)methyl]-piperazine] |  |  |  | 3H-Diprenorphin, % @ 1 uM [1]: 30% @ 1 uM; Late Phase Formalin column, % I @ 1 μM [2]: 75% I @ 1 μM; 3H-U-69,593, % @ 1 uM [3]: 75% @ 1 uM
CC(C)(C)OC(=O)N[C@H](CC(=O)OCc1ccccc1)C(=O)N1CCN(C(=O)Cc2ccc(Cl)c(Cl)c2)[C@H](CN2CCCC2)C1 [(R-3d), (R)-4-N-t-Boc-D-aspartic acid-β-benzyl ester-1-[(3,4-dichlorophenyl)acetyl]-2-[(1-pyrrolidinyl)methyl]-piperazine] |  |  |  | 3H-Diprenorphin, % @ 1 uM [1]: 36% @ 1 uM; Ki ([3]; read-out: Ki, nM 3H-U-69,593): 379 nM and 249 nM
Cl.Cl.NC(CC(=O)O)C(=O)N1CCN(C(=O)Cc2ccc(Cl)c(Cl)c2)[C@H](CN2CCCC2)C1 (stereo partly drawn) [(R-3e), (R)-4-Aspartic acid-1-[(3,4-dichlorophenyl)acetyl]-2-[(1-pyrrolidinyl)methyl]-piperazine dihydrochloride] |  | 22% A @ 300 |  | 3H-Diprenorphin, % @ 1 uM [1]: 39% @ 1 uM; Ki ([3]; dihydrochloride, read-out: Ki, nM 3H-U-69,593): 37 nM and 28 nM
CCOP(=O)(OCC)N1CCN(C(=O)Cc2ccc(Cl)c(Cl)c2)[C@H](CN2CCCC2)C1 [(R-3g), (R)-4-(Diethoxyphosphonate)-1-[(3,4-dichlorophenyl)acetyl]-2-[(1-pyrolidinyl)methyl]-piperazine hydrochloride] | 99 nM and 33 nM | 54% @ 300 | 1.3 nM and 1.4 nM | 
O=C(Cc1ccc(Cl)c(Cl)c1)N1CCN(C(=O)C(F)(F)F)C[C@H]1CN1CCCC1 [(R-3h), (R)-4-Trifluoroacetyl-1-(3,4-dichlorophenyl)acetyl]-2-[(1-pyrrolidinyl)methyl]-piperazine hydrochloride] | 6.9 nM and 1.8 nM | 94% @ 300 | 0.26 nM and 0.16 nM | 
Cl.NC(=O)N1CCN(C(=O)Cc2ccc(Cl)c(Cl)c2)[C@H](CN2CCCC2)C1 [(R-3i), (R)-4-[(3,4-Dichlorophenyl)acetyl]-3-[(1-pyrrolidinyl)methyl]-1-piperazinecarboxamide hydrochloride] | 56 nM and 29 nM | 68% @ 300 | 2.9 nM | 
Cc1ccc(S(=O)(=O)N2CCN(C(=O)Cc3ccc(Cl)c(Cl)c3)[C@H](CN3CCCC3)C2)cc1 [(R-3l), (R)-4-(4-Methyphenylsulfonyl)-1-[(3,4-dichlorophenyl)acetyl]-2-[(1-Pyrrolidinyl)methyl]-piperazine hydrochloride] |  | 24% @ 300 | 6.2 nM | Ki [1, 4]: 120 nM
